Patent US20210283217A1, “NEUROMODULATING COMPOSITIONS AND RELATED THERAPEUTIC METHODS FOR THE TREATMENT OF INFLAMMATORY AND AUTOIMMUNE DISEASES” (Flagship Pioneering Innovations V, Inc., priority 2016, published 2021)

Columns and labels:
primary human T cells = test: T cell activation and cytokine secretion assay (LEGENDplex); type: cell-based
Method: Peripheral blood mononuclear cells (PBMCs) were isolated from whole blood by ficoll density separation. Briefly, blood was diluted 1:2 with 0.5 mM EDTA solution in PBS, loaded onto a Ficoll-filled Leucosep tube (Greiner Bio-One), and centrifuged for 20 minutes at 1000×g. After centrifugation, the leukocyte/PBMC layer on top of the separation medium was collected and sequentially washed three times with 0.5 mM EDTA solution in PBS. T cells were isolated from PBMCs using magnetic bead-based separation following vendor specification, e.g., Biolegend MojoSort Human CD4/CD8 Naïve T Cell Isolation Kit protocol. In brief, the PBMCs were labeled with biotinylated antibodies against cell surface receptors for cells not in the population of interest. The labeled cells are then captured by streptavidin-coated magnetic beads and removed by magnetic incubation. The uncaptured cells that flow through the magnetic separation are predominantly comprised of the population of interest, in this instance CD3+ T cells. T cells were stained with a 5 μM solution of Tag-it Violet™ dye (BioLegend) for 20 minutes protected from light. The stain was quenched by incubating the cells in cell culture medium containing 10% FBS (complete media). Stained cells were plated on tissue culture plates and sub-maximally activated with concanavalin A (con A) added to the culture medium. Cells were plated at 0.1×10^6 cells well. […] Cells were collected at 24, 48, and 72 hrs. Supernatants were collected at 24, 48, and 72 hrs and cytokine secretion was analyzed by flow cytometry using a LEGENDplex assay (BioLegend). In brief, following manufacturer's protocol, beads pre-coated with antibodies specific to various cytokines were incubated with cell supernatant. […] The beads were then stained and the captured cytokine composition assessed by flow cytometry.

[1] = tested on: T cells in the lymph node; test: Lymph node remodeling by hock injection, flow cytometry of lymph node cells; type: in vivo, C57BL/6J mice; settings: hock injection 48.5 nmol followed by quinpirole 0.1 nmol; 24 hours
Method: 24 hours after hock injection, brachial lymph nodes (LN) were harvested in culture medium (RPMI+10% FBS). LNs were transferred to 24-well tissue culture plates containing 0.5 mL LN digestion buffer (RPMI, 2% FBS, collagenase D (3.3 mg/mL), and DNAse I (40 ug/mL)). LN capsules were manually opened with two syringe (26G) needles and the LNs were incubated in digestion buffer for 15 minutes. Digested LNs were filtered with a 40 μM cell strainer and tissues were smashed with the plunger of a 5 mL syringe. Collected cells were washed in culture medium and plated for assays. Total number of viable cells were assessed by staining with viability dye eFluor 780 (eBioscience). Surface markers of various immune cell subsets were analyzed by staining the cells with antibodies for cell identity (CD3, CD4, CD8, CD19), for the inflammatory marker CD69, and the migratory marker CCR7. The cells were then assayed by flow cytometry.

macrophages = test: Macrophage activation and cytokine secretion assay (M1/M2 polarization); type: cell-based, human
Method: Peripheral blood mononuclear cells (PBMCs) were isolated from whole blood by ficoll density separation. Briefly, blood was diluted 1:2 with 0.5 mM EDTA solution in PBS, loaded onto a Ficoll-filled Leucosep tube (Greiner Bio-One), and centrifuged for 20 minutes at 1000×g. After centrifugation, the leukocyte/PBMC layer was collected and sequentially washed three times with 0.5 mM EDTA solution in PBS.
Monocytes (CD14+) were isolated from PBMCs using magnetic bead-based separation following vendor specifications, e.g., Biolegend MojoSort Human CD14 Selection Kit protocol. In brief, PBMCs were labeled with biotinylated antibodies against cell surface receptors for cells not in the population of interest. The labeled cells are then captured by streptavidin-coated magnetic beads and removed by magnetic incubation. The uncaptured cells that flow through the magnetic separation are predominantly comprised of the population of interest, in this case CD14+ monocytes.
Monocytes were differentiated into macrophages by culturing in DMEM complete medium containing 10% FBS for seven days in the presence of 40 ng/mL human M-CSF. Media was changed on day 1 and day 4. On Day 4, macrophages were polarized to various subtypes as follows: M0—incubated with 40 ng/mL M-CSF; M1—cultured with 40 ng/mL M-CSF, 20 ng/mL IFNγ, and 50 ng/mL LPS; M2—incubated with 40 ng/mL M-CSF, 20 ng/mL IL4, 20 ng/mL IL10, and 20 ng/mL TFGB. On day 7, cells were harvested by scraping them from the tissue culture plates and transferring them to 96-well plates.
Supernatants were collected at 24, 48, and 72 hrs and cytokine secretion was analyzed by flow cytometry using a LEGENDplex assay (BioLegend). In brief, following manufacturer's protocol, beads that are pre-coated with antibodies specific to various cytokines were incubated with cell supernatant. […] The beads were then stained and the captured cytokine composition assessed by flow cytometry.
M1 macrophage polarization is defined as increase in production of IL-12, TNF, IL-6, IL-8, IL-1B, MCP-1 and CCL2. Additionally, markers of M1 polarization that can be detected by RNA include Nos2. M2 polarization is defined as increase in IL-10 and/or a decrease in the M1 cytokines listed above. Additionally, markers of M2 polarization that can be detected by RNA include Arg1, IDO, PF4, CCL24, IL10, and IL4Ralpha.

NK cells = test: NK cell ADCC against trastuzumab-coated Her2 expressing target cells; type: cell-based, human; settings: compared with NK cells pre-treated with beta adrenergic antagonist (nadolol or propranolol) prior to the agonist
Method: Primary Natural Killer (NK) cells are isolated from human peripheral blood using a magnetic bead-based separation kit that negatively selects NK cells by sequestering other defined cell types (T, B, monocytes, etc.). Isolated NK cells are incubated with a target cell line, for example a Her2 expressing cancer cell line that has been pre-coated with trastuzumab, an anti-Her2 antibody, at a range of target-to-effector cell ratios. Following antibody-dependent cell cytotoxicity (ADCC)—antibody-mediated killing of the target cells by the NK cells, the number of surviving target cells is assessed by a fluorescent viability stain.

[2] = Treatment of multiple sclerosis patient, MRI lesions; type: in vivo, human; settings: MS patient; oral 5 mg/day; MRI 3-6 month after treatment initiation
Method: A patient is diagnosed with multiple sclerosis (MS) by MRI criteria of >2 lesions. The patient is treated orally with propranolol at a dose regimen of 5 mg/day. An MRI scan is administered 3-6 month after treatment initiation. Further MRI scans are obtained at intervals of 6-12 months.

[3] = low sub-nanomolar concentrations, 72 hours post treatment
[4] = T cells from two different donors, 72 hours
[5] = T cells from two different donors, multiple time points

Compound: NCCc1ccc(O)c(O)c1 [dopamine, Dopamine]
- T cell production of pro-survival cytokine IL-2 (primary human T cells; 24 and 48 hours post-treatment, nanomolar concentrations): increase
- T cell production of pro-inflammatory cytokine IFNγ (primary human T cells; [3]): increase
- T cell production of pro-inflammatory cytokine IL-5 (primary human T cells; [3]): increase
- T cell production of pro-inflammatory cytokine IL-6 (primary human T cells; [3]): increase
- T cell production of pro-inflammatory cytokine IL-10 (primary human T cells; [3]): increase
- T cell production of pro-inflammatory cytokine IL-13 (primary human T cells; [3]): increase

Compound: O=C(CCCN1CCC(O)(c2ccc(Cl)cc2)CC1)c1ccc(F)cc1 [haloperidol, Haloperidol]
- quinpirole-induced increase of CCR7+ T cells in the lymph node after pre-treatment with antagonist [1]: inhibited

Compound: CC(C)NCC(O)c1ccc(O)c(O)c1 (centres unmarked) [isoproterenol]
- T cell production of pro-inflammatory cytokine IFNγ (FIG. 6A) (primary human T cells; [4]): decreased
- T cell production of pro-inflammatory cytokine IL-10 (FIG. 6C) (primary human T cells; [4]): decreased
- T cell production of pro-inflammatory cytokine TNFα (FIG. 6B) (primary human T cells; [4]): decreased
- T cell production of pro-inflammatory cytokine IFNγ (primary human T cells; [5]): decrease
- T cell production of pro-inflammatory cytokine IL-10 (primary human T cells; [5]): decrease
- T cell production of pro-inflammatory cytokine TNFα (primary human T cells; [5]): decrease
- transcript of NOS2 in macrophages (macrophages; M1 marker): decrease
- transcript for Arg1 in macrophages (macrophages; M2 marker): increase
- transcript for IL-10 in macrophages (macrophages; M2 marker): increase
- macrophage polarization phenotype (macrophages; monocyte-derived macrophages, dilutions from 10 μM to 1 nM): polarized toward an M2 phenotype

Compound: CC(C)NCC(O)c1cc(O)cc(O)c1 (centres unmarked) [metaproterenol]
- ADCC induced by treated NK cells (NK cells): significantly less ADCC

Compound: CC(C)NCC(O)COc1cccc2ccccc12 (centres unmarked) [propranolol]
- Gadolinium (Gd)-enhancing T1 lesions and/or new or enlarging (active) T2 lesions [2]: decrease

Compound: neuropeptide Y
- T cell production of cytokine IL-4 (primary human T cells; sub-nanomolar concentrations, 48 hours post-treatment): increase
